biological target: T1, TRPML1 (Homo sapiens, UniProt Q9GZU1); assay: Cellular TRPML1 assay (FLIPR TETRA, GCaMP6f calcium read-out); type: cell-based; conditions: HEK T-REx/GCaMP6f/TRPML1 cells; Ca2+ response over 300 s, normalized to ML-SA1 50 μM; Ca2+ free or Optimem condition not given; read-out: Ec50 (Activity of TRPML1 agonists)
T1 construct: expressed in transfected cells
Procedure: Buffers and reagents • PBS (D-PBS without calcium and magnesium; EuroClone) • Trypsin (Trypsin 0.05%, EDTA 0.02% in PBS; EuroClone) • DMSO (Sigma) • Ca^2+ free Tyrode's buffer: in-house solution (130 mM NaCl, 5 mM KCl, 1 mM MgCl2, 5 mM NaHCO3, 20 mM HEPES in water at pH 7.4; sterile filtered). • Opti-MEM (Gibco) • Agonist: ML-SA1 (Sigma); stock: 60 mM in DMSO, stored at −20° C. • Blocker: ML-SI3 (in house synthesis); stock: 20 mM in DMSO, stored at −20° C.
The final clone for the TRPML1 assay is HEK T-REx/GCaMP6f/TRPML1.
GCaMP6f is a genetically encoded calcium indicator that is stably expressed in this cell line and used as a fluorescent read-out.
Experiments are performed in 384 MTP format. Cells are seeded at 15000 cells/well either in 25 μl/well of growth medium or in 20 μl/well of Optimem+0.5% FBS without selection antibiotics. Twenty-four hours later, cells are assayed for the response to various compounds using the Ca^2+ sensitive GCaMP6f protein stably expressed in the cells as readout.
The experiment is performed in a 384-well format according to the following procedures for either Ca^2+ free or Optimem conditions: • Ca^2+ free condition (in absence of extracellular Ca^2+): • 24 h after seeding, pre-incubate the cells at room temperature for about 10′. • Then remove the culture medium and replace it with 20 μL of Ca^2+ free Tyrode's buffer. • Start the experiment at the FLIPR^TETRA by injecting 10 μL/w of 3× concentrated test compounds and controls in Ca^2+ free Tyrode's buffer. Monitor the kinetic response over a period of 300 seconds. • Final DMSO concentration: 0.5% • Optimem condition (in presence of extracellular Ca^2+): • 24 h after seeding, pre-incubate the cells at room temperature for about 10′. • Start the experiment at the FLIPR^TETRA by injecting 10 μL/w of 3× concentrated test compounds and controls in Ca^2+ free Tyrode's buffer. Monitor the kinetic response over a period of 300 seconds. • Final DMSO concentration: 0.5%
Data from FLIPR^TETRA measurements are analyzed with the Genedata Screener® software.
Stimulator controls (Col 2): injection of ML-SA1 EC100 (50 μM) in alternated wells positions
Neutral controls (Col 2): injection of 0 mM Ca^2+ free Tyrode's buffer in alternated wells positions.
Test wells (Col 3-22): test compounds dose response curve from either 100 μM with 1:2 dilution steps or from 50 μM with 1:3.16 dilution steps.

T1 sequence (Q9GZU1 whole entry): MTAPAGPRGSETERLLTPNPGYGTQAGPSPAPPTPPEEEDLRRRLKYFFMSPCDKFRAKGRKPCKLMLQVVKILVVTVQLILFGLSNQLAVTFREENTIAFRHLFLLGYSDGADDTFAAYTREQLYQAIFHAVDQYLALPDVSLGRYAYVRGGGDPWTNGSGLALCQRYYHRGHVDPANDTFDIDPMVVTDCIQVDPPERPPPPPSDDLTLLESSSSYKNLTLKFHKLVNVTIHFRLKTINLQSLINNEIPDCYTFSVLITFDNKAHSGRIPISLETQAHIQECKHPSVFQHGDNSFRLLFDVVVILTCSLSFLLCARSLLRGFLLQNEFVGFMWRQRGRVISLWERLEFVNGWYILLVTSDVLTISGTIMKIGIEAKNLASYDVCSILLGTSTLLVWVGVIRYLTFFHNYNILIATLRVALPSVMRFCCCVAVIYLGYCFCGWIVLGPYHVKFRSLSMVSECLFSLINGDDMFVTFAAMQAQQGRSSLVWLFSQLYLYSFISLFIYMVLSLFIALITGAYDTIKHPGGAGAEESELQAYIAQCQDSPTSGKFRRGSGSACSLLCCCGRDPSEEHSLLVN

Structure (SMILES) | EC50
CN(C)S(=O)(=O)c1ccc(S(=O)(=O)Nc2ccccc2N2CCC(c3ccccc3)C2)cc1 (stereo not drawn) [Example 37, N1,N1-dimethyl-N4-[2-(3-phenylpyrrolidin-1-yl)phenyl]benzene-1,4-disulfonamide] | 6.3 µM
CN(C)S(=O)(=O)c1ccc(S(=O)(=O)Nc2ccccc2N2CCC(O)CC2)cc1 [Example 38, N1-(2-(4-hydroxypiperidin-1-yl)phenyl)-N4,N4-dimethylbenzene-1,4-disulfonamide] | 34.5 µM
CC(C)Oc1ccc(S(=O)(=O)Nc2ccccc2N2CCCCC2)cc1 [Example 39, 4-isopropoxy-N-(2-(piperidin-1-yl)phenyl)benzenesulfonamide] | 54.5 µM
CN(C)S(=O)(=O)c1ccc(S(=O)(=O)Nc2ccccc2N2CCCOCC2)cc1 [Example 43, N1-(2-(l,4-oxazepan-4-yl)phenyl)-N4,N4-dimethylbenzene-1,4-disulfonamide] | 7 µM
CN(C)S(=O)(=O)c1ccc(S(=O)(=O)Nc2ccccc2N2CCC(F)CC2)cc1 [Example 44, N1-(2-(4-fluoropiperidin-1-yl)phenyl)-N4,N4-dimethylbenzene-1,4-disulfonamide] | 2.6 µM
CCCOC1CCN(c2ccccc2NS(=O)(=O)c2ccc(S(=O)(=O)N(C)C)cc2)CC1 [Example 45, N1,N1-dimethyl-N4-(2-(4-propoxypiperidin-1-yl)phenyl)benzene-1,4-disulfonamide] | 1.9 µM
Cc1ccccc1S(=O)(=O)Nc1ccccc1N1CCN(C(=O)OC(C)(C)C)CC1 [Example 47, tert-butyl 4-(2-((2-methylphenyl)sulfonamido)phenyl)piperazine-1-carboxylate] | 5.2 µM
CN(C(=O)c1ccc(S(=O)(=O)N(C)C)cc1)c1ccccc1N1CC2CCC1C2 (stereo not drawn) [Example 49, N-(2-{2-azabicyclo[2.2.1]heptan-2-yl}phenyl)-4-(dimethylsulfamoyl)-N-methylbenzamide] | 29.3 µM
Cc1ccc(S(=O)(=O)Nc2ccccc2N2CCN(C(=O)OC(C)(C)C)CC2)c(C)c1 [Example 50, tert-butyl 4-(2-((2,4-dimethylphenyl)sulfonamido)phenyl)piperazine-1-carboxylate] | 2.2 µM
Cc1ccc(S(=O)(=O)Nc2ccccc2N2CCN(C(=O)OC(C)(C)C)CC2)cc1C [Example 51, tert-butyl 4-(2-((3,4-dimethylphenyl)sulfonamido)phenyl)piperazine-1-carboxylate] | 3 µM
Cc1cc(C)cc(S(=O)(=O)Nc2ccccc2N2CCN(C(=O)OC(C)(C)C)CC2)c1 [Example 54, tert-butyl 4-(2-((3,5-dimethylphenyl)sulfonamido)phenyl)piperazine-1-carboxylate] | 20 µM
CN(C)S(=O)(=O)c1ccc(S(=O)(=O)NC2CCCCC2N2CCC(c3ccccc3)CC2)cc1 (stereo not drawn) [Example 55, N1,N1-dimethyl-N4-[2-(4-phenylpiperidin-1-yl)cyclohexyl]benzene-1,4-disulfonamide] | 6.1 µM
Cc1nc(C)c(S(=O)(=O)Nc2ccccc2N2CCN(C(=O)OC(C)(C)C)CC2)s1 [Example 56, tert-butyl 4-(2-((2,4-dimethylthiazole)-5-sulfonamido)phenyl)piperazine-1-carboxylate] | 3.6 µM
Cc1cc(S(=O)(=O)Nc2ccccc2N2CCN(C(=O)OC(C)(C)C)CC2)c(C)s1 [Example 59, tert-butyl 4-(2-((2,5-dimethylthiophene)-3-sulfonamido)phenyl)piperazine-1-carboxylate] | 1.6 µM
Cc1cncc(S(=O)(=O)Nc2ccccc2N2CCN(C(=O)OC(C)(C)C)CC2)c1 [Example 60, tert-butyl 4-(2-((5-methylpyridine)-3-sulfonamido)phenyl)piperazine-carboxylate] | 7.3 µM
CN(C)S(=O)(=O)c1ccc(S(=O)(=O)NC2CCCCC2N2CCOCC2)cc1 (stereo not drawn) [Example 61, N1,N1-dimethyl-N4-[2-(morpholin-4-yl)cyclohexyl]benzene-1,4-disulfonamide] | 39.5 µM
Cc1noc(C)c1S(=O)(=O)Nc1ccccc1N1CCN(C(=O)OC(C)(C)C)CC1 [Example 64, tert-butyl 4-(2-((3,5-dimethylisoxazole)-4-sulfonamido)phenyl)piperazine-1-carboxylate] | 36.4 µM

Structure (SMILES) | EC50
CCCOC1CCN(c2ccccc2NS(=O)(=O)c2ccc(C)cc2C)CC1 [Example 66, 2,4-dimethyl-N-(2-(4-propoxypiperidin-1-yl)phenyl)benzenesulfonamide] | 22.1 µM
CCCOC1CCN(c2ccccc2NS(=O)(=O)c2cc(C)oc2C)CC1 [Example 67, 2,5-dimethyl-N-(2-(4-propoxypiperidin-1-yl)phenyl)furan-3-sulfonamide] | 37.8 µM
CCC(=O)N1CCN(c2ccccc2NS(=O)(=O)c2ccc(S(=O)(=O)N(C)C)cc2)CC1 [Example 71, N1,N1-dimethyl-N4-[2-(4-propanoylpiperazin-1-yl)phenyl]benzene-1,4-disulfonamide] | 17.3 µM
CN1CCc2cc(S(=O)(=O)Nc3ccccc3N3CCN(C(=O)OC(C)(C)C)CC3)ccc21 [Example 72, tert-butyl 4-(2-((l-methylindoline)-5-sulfonamido)phenyl)piperazine-1-carboxylate] | 3 µM
CN(C)S(=O)(=O)c1ccc(S(=O)(=O)Nc2ccccc2N2CCN(C(=O)c3cccs3)CC2)cc1 [Example 79, N1,N1-dimethyl-N4-{2-[4-(thiophene-2-carbonyl)piperazin-1-yl]phenyl}benzene-1,4-disulfonamide] | 8.8 µM
Cc1ncsc1C(=O)N1CCN(c2ccccc2NS(=O)(=O)c2ccc(S(=O)(=O)N(C)C)cc2)CC1 [Example 80, N1,N1-dimethyl-N4-{2-[4-(4-methyl-1,3-thiazole-5-carbonyl)piperazin-1-yl]phenyl}benzene-1,4-disulfonamide] | 18.9 µM
CN(C)S(=O)(=O)c1ccc(S(=O)(=O)Nc2ccccc2N2CCN(C(=O)Cc3cccs3)CC2)cc1 [Example 81, N1,N1-dimethyl-N4-(2-{4-[2-(thiophen-2-yl)acetyl]piperazin-1-yl}phenyl)benzene-1,4-disulfonamide] | 11.1 µM
CN(C)S(=O)(=O)c1ccc(S(=O)(=O)Nc2ccccc2N2CCC(Oc3cccnc3)CC2)cc1 [Example 86, N1,N1-dimethyl-N4-{2-[4-(pyridin-3-yloxy)piperidin-1-yl]phenyl}benzene-1,4-disulfonamide] | 5.7 µM
CCCNC(=O)C1CCN(c2ccccc2NS(=O)(=O)c2ccc(S(=O)(=O)N(C)C)cc2)CC1 [Example 87, 1-{2-[4-(dimethylsulfamoyl)benzenesulfonamido]phenyl}-N-propylpiperidine-4-carboxamide] | 18.5 µM
CN(C)S(=O)(=O)c1ccc(S(=O)(=O)Nc2ccccc2N2CCC(Oc3ncccn3)CC2)cc1 [Example 89] | 3.2 µM
Cc1ccc(S(=O)(=O)Nc2ccccc2N2CCN(C(=O)OC(C)(C)C)CC2)c2cccnc12 [Example 95, tert-butyl 4-(2-((8-methylquinoline)-5-sulfonamido)phenyl)piperazine-1-carboxylate] | 10.7 µM
Cc1cc(S(=O)(=O)Nc2ccccc2N2CCC(Oc3ccccn3)CC2)c(C)s1 [Example 97, 2,5-dimethyl-N-(2-(4-(pyridin-2-yloxy)piperidin-1-yl)phenyl)thiophene-3-sulfonamide] | 2.8 µM
Cc1ccc(S(=O)(=O)Nc2ccccc2N2CCC(Oc3ccccn3)CC2)cn1 [Example 98, 6-methyl-N-(2-(4-(pyridin-2-yloxy)piperidin-1-yl)phenyl)pyridine-3-sulfonamide] | 3.3 µM
CN(C)S(=O)(=O)c1ccc(S(=O)(=O)Nc2ccccc2N2CCOC(c3ccccc3)C2)cc1 (stereo not drawn) [Example 100, N1,N1-dimethyl-N4-(2-(2-phenylmorpholino)phenyl)benzene-1,4-disulfonamide] | 6.8 µM
CN(C)S(=O)(=O)c1ccc(S(=O)(=O)Nc2ccccc2N2CCOC(Cc3ccccc3)C2)cc1 (stereo not drawn) [Example 101, N1-(2-(2-benzylmorpholino)phenyl)-N4,N4-dimethylbenzene-1,4-disulfonamide] | 4 µM
CC(C)N(C(=O)c1ccc(S(C)(=O)=O)cc1)c1ccccc1N1CCC(Oc2cnccn2)CC1 [Example 103, N-isopropyl-4-(methylsulfonyl)-N-(2-(4-(pyrazin-2-yloxy)piperidin-1-yl)phenyl)benzamide] | 14.8 µM
